US20260201008A1, “SECRETIN-DERIVED GLP1R SELECTIVE AGONISTS” (GUBRA A/S, priority 2023, published 2026)
Where two headings read alike, the source gives them in different places. Numbered stars: 1 amine (or outer) side, 2 acyl side, 3 side chain; on linkers, the order of the positions; unused ones are H or OH. Square brackets hold non-standard residues; d marks the D form. Side chains are listed from the residue outwards. Peptide text beside a SMILES is read from it. * marks the point of attachment. C20 diacid = O=C(O)CCCCCCCCCCCCCCCCCCC(=O)*; γGlu = O=C(O)[C@H](CCC(=O)[*:2])N[*:1]; AEEA = NCCOCCOCC(=O)O; Aib = CC(C)(N)C(=O)O

Assays:
[1] = molecular target: GLP1R (Homo sapiens, UniProt P43220); assay: hGLP1R potency, cAMP accumulation in CHO-K1 cells stably overexpressing hGLP1R; format: cell-based; parameters: host or cells: CHO-K1; details: for SCTR EC50/GLP1R EC50 ratio: selectivity for hGLP1R over hSCTR, cAMP accumulation in CHO-K1 cells
Sequence of GLP1R (P43220 24-463): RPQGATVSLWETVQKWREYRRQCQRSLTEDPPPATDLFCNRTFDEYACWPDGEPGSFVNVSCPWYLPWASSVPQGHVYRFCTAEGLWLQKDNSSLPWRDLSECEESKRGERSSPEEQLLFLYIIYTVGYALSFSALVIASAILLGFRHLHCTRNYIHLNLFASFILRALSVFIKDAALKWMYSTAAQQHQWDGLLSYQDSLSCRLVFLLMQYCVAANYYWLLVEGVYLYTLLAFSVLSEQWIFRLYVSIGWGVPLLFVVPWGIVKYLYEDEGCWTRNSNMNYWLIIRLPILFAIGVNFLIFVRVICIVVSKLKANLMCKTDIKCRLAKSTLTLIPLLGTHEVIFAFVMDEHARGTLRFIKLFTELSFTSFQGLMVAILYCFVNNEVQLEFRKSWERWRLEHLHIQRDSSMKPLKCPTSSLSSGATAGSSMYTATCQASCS
Method in brief: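 CHO-K1 cells stably expressing hGLP1R (2000/well) in DPBS with 0.05% casein and 0.5 mM IBMX were stimulated 30 min at room temperature with graded compound doses; human GLP-1(7-36) served as positive control. cAMP was read by HTRF after 1 h; EC50 came from variable-slope sigmoid fits (purified peptides: 11-point 3-fold, n=2).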

[2] = molecular target: SCTR (Homo sapiens, UniProt P47872); assay: hSCTR potency, cAMP accumulation in CHO-K1 cells stably overexpressing hSCTR; format: cell-based; parameters: alternatively Euroscreen ES-712-AF; FAST-0161L; host or cells: CHO-K1
Sequence of SCTR (P47872 23-440): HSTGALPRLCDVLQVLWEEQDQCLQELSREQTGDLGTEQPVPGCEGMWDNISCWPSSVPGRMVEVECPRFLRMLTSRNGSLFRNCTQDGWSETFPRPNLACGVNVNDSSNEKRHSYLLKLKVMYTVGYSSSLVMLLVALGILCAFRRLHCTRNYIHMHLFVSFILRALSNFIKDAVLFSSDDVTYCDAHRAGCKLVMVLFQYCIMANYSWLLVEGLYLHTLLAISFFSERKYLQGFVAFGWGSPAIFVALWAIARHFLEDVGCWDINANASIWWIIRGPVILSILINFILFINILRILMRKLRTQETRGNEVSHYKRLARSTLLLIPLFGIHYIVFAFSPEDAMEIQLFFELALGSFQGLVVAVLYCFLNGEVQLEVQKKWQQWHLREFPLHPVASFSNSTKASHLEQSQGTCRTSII
Method in brief: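 Cells plated at 2000/well in DPBS with 0.05% casein and 0.5 mM IBMX, stimulated 30 min at room temperature with graded compound doses; human secretin as positive control. cAMP read by TR-FRET after 1 h. Purified peptides tested at 11 3-fold dilutions, n=2; EC50 by variable-slope sigmoid fit.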

[3] = Fibril formation of crude library peptides (Thioflavin T); format: physicochemical; parameters: key: average ThT fluorescence emission at 480 nm (ex 450 nm), raw units; details: Physical stability of peptides
Method in brief: (§1)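 Crude peptides at 267 μM in 50 mM sodium acetate pH 4.0 or 50 mM sodium phosphate pH 7.0, pre-incubated 1-2 h at room temperature, then 4 μM final ThT added. Turbidity read first as A600. ThT fluorescence (ex 450/em 480 nm) read every 10 min for 72 h at 40° C, with 5 min shaking before each read; fibril formation = average emission.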

[4] = Turbidity of crude library peptides (absorbance at 600 nm); format: physicochemical; details: Physical stability of peptides
Method in brief: as §1

[5] = cAMP accumulation, CHO-K1 cells overexpressing hGLP1R, read-out: hGLP1R pEC50 (converted)
[6] = cAMP accumulation, CHO-K1 cells overexpressing hSCTR, read-out: hSCTR pEC50 (converted)

SMILES	EC50 [1] [nM]	SCTR EC50/GLP1R EC50 ratio [1]	EC50 [2] [nM]	Fibril formation [3]	Turbidity (pH 7) [4]	EC50 [1, 5] [nM]	EC50 [2, 6] [nM]
CC(C)C[C@H](NC(=O)[C@H](Cc1ccccc1)NC(=O)[C@H](CCCNC(=N)N)NC(=O)[C@H](CCC(N)=O)NC(=O)[C@@H](NC(=O)[C@H](C)NC(=O)[C@H](C)NC(=O)[C@@H](NC(=O)[C@H](CCC(=O)O)NC(=O)[C@H](CCCCNC(=O)COCCOCCNC(=O)COCCOCCNC(=O)CC[C@H](NC(=O)CCCCCCCCCCCCCCCCCCC(=O)O)C(=O)O)NC(=O)[C@H](CC(C)C)NC(=O)[C@@H](NC(=O)[C@H](CO)NC(=O)[C@@H](NC(=O)[C@H](CC(=O)O)NC(=O)[C@H](CO)NC(=O)[C@@H](NC(=O)[C@H](Cc1ccccc1)NC(=O)[C@@H](NC(=O)CNC(=O)[C@H](CCC(=O)O)NC(=O)C(C)(C)NC(=O)[C@@H](N)Cc1c[nH]cn1)[C@@H](C)O)[C@@H](C)O)C(C)C)[C@@H](C)O)[C@@H](C)O)[C@@H](C)O)C(=O)N[C@@H](CCC(=O)O)C(=O)N[C@@H](Cc1c[nH]cn1)C(=O)N[C@@H](CC(C)C)C(=O)N[C@H](C(N)=O)C(C)C [compound 93] (H-H[Aib]EGTFTSDVSTLK([AEEA-AEEA-γGlu-C20 diacid])ETAATQRFLEHLV-NH2)	0.01	36771	316	6728	0.08	–	–
CC(C)C[C@H](NC(=O)[C@H](Cc1ccccc1)NC(=O)[C@H](CCCNC(=N)N)NC(=O)[C@H](CCC(N)=O)NC(=O)[C@H](CCC(N)=O)NC(=O)[C@H](C)NC(=O)[C@H](C)NC(=O)C(C)(C)NC(=O)[C@H](CCC(=O)O)NC(=O)[C@H](CCCCNC(=O)COCCOCCNC(=O)COCCOCCNC(=O)CC[C@H](NC(=O)CCCCCCCCCCCCCCCCCCC(=O)O)C(=O)O)NC(=O)[C@H](CC(C)C)NC(=O)[C@H](Cc1ccc(O)cc1)NC(=O)[C@H](CO)NC(=O)[C@@H](NC(=O)[C@H](CC(=O)O)NC(=O)[C@H](CO)NC(=O)[C@@H](NC(=O)[C@H](Cc1ccccc1)NC(=O)[C@@H](NC(=O)CNC(=O)[C@H](CCC(=O)O)NC(=O)C(C)(C)NC(=O)[C@@H](N)Cc1c[nH]cn1)[C@@H](C)O)[C@@H](C)O)C(C)C)C(=O)N[C@@H](CCC(=O)O)C(=O)N[C@@H](Cc1c[nH]cn1)C(=O)N[C@@H](CC(C)C)C(=O)N[C@H](C(N)=O)C(C)C [compound 94] (H-H[Aib]EGTFTSDVSYLK([AEEA-AEEA-γGlu-C20 diacid])E[Aib]AAQQRFLEHLV-NH2)	–	111764	–	10901	0.08	0.01	1000
CC(C)C[C@H](NC(=O)[C@H](Cc1ccccc1)NC(=O)[C@H](CCCNC(=N)N)NC(=O)[C@H](CCC(N)=O)NC(=O)[C@H](CCC(=O)O)NC(=O)[C@H](C)NC(=O)[C@H](C)NC(=O)[C@H](CCC(=O)O)NC(=O)[C@H](CCC(=O)O)NC(=O)[C@H](CCCCNC(=O)COCCOCCNC(=O)COCCOCCNC(=O)CC[C@H](NC(=O)CCCCCCCCCCCCCCCCCCC(=O)O)C(=O)O)NC(=O)[C@H](CC(C)C)NC(=O)[C@H](Cc1ccc(O)cc1)NC(=O)[C@H](CO)NC(=O)[C@@H](NC(=O)[C@H](CC(=O)O)NC(=O)[C@H](CO)NC(=O)[C@@H](NC(=O)[C@H](Cc1ccccc1)NC(=O)[C@@H](NC(=O)CNC(=O)[C@H](CCC(=O)O)NC(=O)C(C)(C)NC(=O)[C@@H](N)Cc1c[nH]cn1)[C@@H](C)O)[C@@H](C)O)C(C)C)C(=O)N[C@@H](CCC(=O)O)C(=O)N[C@@H](Cc1c[nH]cn1)C(=O)N[C@@H](CC(C)C)C(=O)N[C@H](C(N)=O)C(C)C [compound 95] (H-H[Aib]EGTFTSDVSYLK([AEEA-AEEA-γGlu-C20 diacid])EEAAEQRFLEHLV-NH2)	–	840427	–	10160	0.08	0.02	15800
CC(C)C[C@H](NC(=O)[C@H](Cc1ccccc1)NC(=O)[C@H](CCCNC(=N)N)NC(=O)[C@H](CCC(N)=O)NC(=O)[C@H](C)NC(=O)[C@H](C)NC(=O)[C@H](C)NC(=O)[C@H](CCC(=O)O)NC(=O)[C@H](CCC(=O)O)NC(=O)[C@H](CCCCNC(=O)COCCOCCNC(=O)COCCOCCNC(=O)CC[C@H](NC(=O)CCCCCCCCCCCCCCCCCCC(=O)O)C(=O)O)NC(=O)[C@H](CC(C)C)NC(=O)[C@@H](NC(=O)[C@H](CO)NC(=O)[C@@H](NC(=O)[C@H](CC(=O)O)NC(=O)[C@H](CO)NC(=O)[C@@H](NC(=O)[C@H](Cc1ccccc1)NC(=O)[C@@H](NC(=O)CNC(=O)[C@H](CCC(=O)O)NC(=O)C(C)(C)NC(=O)[C@@H](N)Cc1c[nH]cn1)[C@@H](C)O)[C@@H](C)O)C(C)C)[C@@H](C)O)C(=O)N[C@@H](CCC(=O)O)C(=O)N[C@@H](Cc1c[nH]cn1)C(=O)N[C@@H](CC(C)C)C(=O)N[C@H](C(N)=O)C(C)C [compound 96] (H-H[Aib]EGTFTSDVSTLK([AEEA-AEEA-γGlu-C20 diacid])EEAAAQRFLEHLV-NH2)	–	31579	–	8019	0.09	0.0126	398
CC(C)C[C@H](NC(=O)[C@H](Cc1ccccc1)NC(=O)[C@H](CCCNC(=N)N)NC(=O)[C@H](CCC(N)=O)NC(=O)C(C)(C)NC(=O)[C@H](C)NC(=O)[C@H](C)NC(=O)[C@H](CCC(=O)O)NC(=O)[C@H](CCC(=O)O)NC(=O)[C@H](CCCCNC(=O)COCCOCCNC(=O)COCCOCCNC(=O)CC[C@H](NC(=O)CCCCCCCCCCCCCCCCCCC(=O)O)C(=O)O)NC(=O)[C@H](CC(C)C)NC(=O)[C@H](CCC(=O)O)NC(=O)[C@H](CO)NC(=O)[C@@H](NC(=O)[C@H](CC(=O)O)NC(=O)[C@H](CO)NC(=O)[C@@H](NC(=O)[C@H](Cc1ccccc1)NC(=O)[C@@H](NC(=O)CNC(=O)[C@H](CCC(=O)O)NC(=O)C(C)(C)NC(=O)[C@@H](N)Cc1c[nH]cn1)[C@@H](C)O)[C@@H](C)O)C(C)C)C(=O)N[C@@H](CCC(=O)O)C(=O)N[C@@H](Cc1c[nH]cn1)C(=O)N[C@@H](CC(C)C)C(=O)N[C@H](C(N)=O)C(C)C [compound 97] (H-H[Aib]EGTFTSDVSELK([AEEA-AEEA-γGlu-C20 diacid])EEAA[Aib]QRFLEHLV-NH2)	–	145949	–	10277	0.09	0.01	1580
CC(C)C[C@H](NC(=O)[C@H](Cc1ccccc1)NC(=O)[C@H](CCCNC(=N)N)NC(=O)[C@H](CCC(N)=O)NC(=O)[C@H](C)NC(=O)[C@H](C)NC(=O)[C@H](C)NC(=O)[C@H](CCC(=O)O)NC(=O)[C@H](CCC(=O)O)NC(=O)[C@H](CCCCNC(=O)COCCOCCNC(=O)COCCOCCNC(=O)CC[C@H](NC(=O)CCCCCCCCCCCCCCCCCCC(=O)O)C(=O)O)NC(=O)[C@H](CC(C)C)NC(=O)[C@H](CCC(=O)O)NC(=O)[C@H](CO)NC(=O)[C@@H](NC(=O)[C@H](CC(=O)O)NC(=O)[C@H](CO)NC(=O)[C@@H](NC(=O)[C@H](Cc1ccccc1)NC(=O)[C@@H](NC(=O)CNC(=O)[C@H](CCC(=O)O)NC(=O)C(C)(C)NC(=O)[C@@H](N)Cc1c[nH]cn1)[C@@H](C)O)[C@@H](C)O)C(C)C)C(=O)N[C@@H](CCC(=O)O)C(=O)N[C@@H](Cc1c[nH]cn1)C(=O)N[C@@H](CC(C)C)C(=O)N[C@H](C(N)=O)C(C)C [compound 98] (H-H[Aib]EGTFTSDVSELK([AEEA-AEEA-γGlu-C20 diacid])EEAAAQRFLEHLV-NH2)	–	48854	–	10655	0.09	0.0251	1260
CC(C)C[C@H](NC(=O)[C@H](CCC(=O)O)NC(=O)[C@H](CCCCNC(=O)COCCOCCNC(=O)COCCOCCNC(=O)CC[C@H](NC(=O)CCCCCCCCCCCCCCCCCCC(=O)O)C(=O)O)NC(=O)[C@H](CC(C)C)NC(=O)[C@H](CCC(=O)O)NC(=O)[C@H](CO)NC(=O)[C@@H](NC(=O)[C@H](CC(=O)O)NC(=O)[C@H](CO)NC(=O)[C@@H](NC(=O)[C@H](Cc1ccccc1)NC(=O)[C@@H](NC(=O)CNC(=O)[C@H](CCC(=O)O)NC(=O)C(C)(C)NC(=O)[C@@H](N)Cc1c[nH]cn1)[C@@H](C)O)[C@@H](C)O)C(C)C)C(=O)N[C@@H](C)C(=O)N[C@@H](C)C(=O)N[C@@H](CCC(N)=O)C(=O)N[C@@H](CCC(N)=O)C(=O)N[C@@H](CCCNC(=N)N)C(=O)N[C@@H](Cc1ccccc1)C(=O)N[C@@H](CC(C)C)C(=O)N[C@@H](CCC(=O)O)C(=O)N[C@@H](Cc1c[nH]cn1)C(=O)N[C@@H](CC(C)C)C(=O)N[C@H](C(N)=O)C(C)C [compound 99] (H-H[Aib]EGTFTSDVSELK([AEEA-AEEA-γGlu-C20 diacid])ELAAQQRFLEHLV-NH2)	–	52372	–	87225	0.17	0.0158	794
